Measurements from PubChem BioAssay AID248 (DTP/NCI, 2004).
“And” between values parts separate entries of the source, which are not always exact repeats. Equal entries are not always repeated. Toxic doses and inconclusive results are not listed. Cut-off read from the data, not from the text of the source: active = T/C of 150% or more; inactive = T/C below 125%. Square brackets hold non-standard residues; d marks the D form. Peptide text beside a SMILES is read from it. ξ: configuration not given here. ξF = NC(Cc1ccccc1)C(=O)O

Test system: L1210 leukemia ip in BDF1 mice, survival T/C
Assay: NCI In Vivo Anticancer Drug Screen. Data for tumor model L1210 Leukemia (intraperitoneal) in B6D2F1 (BDF1) mice
Conditions: endpoint: mean survival time, higher = longer survival
Summary of the method: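 Value reflects the ratio of survival in compound-treated mice to survival in vehicle-treated controls, with both groups carrying the same transplanted tumor.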

[1] = dose: 100.0 mg/kg/injection, schedule: Q01DX009 (ip), vehicle: Klucel (hydroxypropylcellulose) (HPC)
[2] = dose: 100.0 mg/kg/injection, schedule: Q04DX003 (ip), vehicle: Klucel (hydroxypropylcellulose) (HPC)
[3] = dose: 200.0 mg/kg/injection, schedule: Q01DX009 (ip), vehicle: Klucel (hydroxypropylcellulose) (HPC)
[4] = dose: 200.0 mg/kg/injection, schedule: Q04DX003 (ip), vehicle: Klucel (hydroxypropylcellulose) (HPC)
[5] = dose: 400.0 mg/kg/injection, schedule: Q04DX003 (ip), vehicle: Klucel (hydroxypropylcellulose) (HPC)
[6] = dose: 25.0 mg/kg/injection, schedule: Q04DX003 (ip), vehicle: saline with Tween-80
[7] = dose: 50.0 mg/kg/injection, schedule: Q04DX003 (ip), vehicle: saline with Tween-80
[8] = dose: 100.0 mg/kg/injection, schedule: Q04DX003 (ip), vehicle: saline with Tween-80
[9] = dose: 200.0 mg/kg/injection, schedule: Q04DX003 (ip), vehicle: saline with Tween-80
[10] = dose: 400.0 mg/kg/injection, schedule: Q04DX003 (ip), vehicle: saline with Tween-80
[11] = dose: 100.0 mg/kg/injection, schedule: Q04DX003 (ip), vehicle: saline
[12] = dose: 50.0 mg/kg/injection, schedule: Q01DX009 (ip), vehicle: saline

Measured: T/C

CC(C)(C)C1=NN=C(C(C)(C)C)CSC1
inactive: [1] 95 % of control and 100 % of control | dose: 100.0 mg/kg/injection, schedule: Q04DX002 (ip), vehicle: Klucel (hydroxypropylcellulose) (HPC) 98 % of control and 103 % of control | [2] 101 % of control | [3] 101 % of control and 113 % of control | dose: 200.0 mg/kg/injection, schedule: Q04DX002 (ip), vehicle: Klucel (hydroxypropylcellulose) (HPC) 103 % of control and 105 % of control | [4] 97 % of control | dose: 400.0 mg/kg/injection, schedule: Q01DX009 (ip), vehicle: Klucel (hydroxypropylcellulose) (HPC) 101 % of control and 92 % of control | dose: 400.0 mg/kg/injection, schedule: Q04DX002 (ip), vehicle: Klucel (hydroxypropylcellulose) (HPC) 98 % of control and 105 % of control | [5] 95 % of control

Cc1cc(N)c(C)c(C)c1O
inactive: dose: 12.5 mg/kg/injection, schedule: Q04DX003 (ip), vehicle: saline with Tween-80 94 % of control | [6] 94 % of control | [7] 94 % of control | [8] 101 % of control

COc1cccc(CN)c1
inactive: [8] 99 % of control | [9] 100 % of control | [10] 94 % of control

O=S1(=O)CC2C3C=CC(O3)C21 (centres undefined)
inactive: dose: 75.0 mg/kg/injection, schedule: Q01DX001 (ip), vehicle: carboxymethylcellulose (CMC) 102 % of control | dose: 150.0 mg/kg/injection, schedule: Q01DX001 (ip), vehicle: carboxymethylcellulose (CMC) 98 % of control

CCCC(C)(C)C(=O)Nc1cccc(O)c1
inactive: [8] 95 % of control | [9] 95 % of control | [10] 92 % of control

Nc1nc(SCCc2ccccc2)c2[nH]cnc2n1
inactive: dose: 125.0 mg/kg/injection, schedule: Q01DX Z (ip), vehicle: carboxymethylcellulose (CMC) 97 % of control | dose: 200.0 mg/kg/injection, schedule: Q01DX Z (ip), vehicle: carboxymethylcellulose (CMC) 123 % of control | dose: 250.0 mg/kg/injection, schedule: Q01DX Z (ip), vehicle: carboxymethylcellulose (CMC) 100 % of control | dose: 500.0 mg/kg/injection, schedule: Q01DX Z (ip), vehicle: carboxymethylcellulose (CMC) 106 % of control | dose: 1000.0 mg/kg/injection, schedule: Q01DX Z (ip), vehicle: carboxymethylcellulose (CMC) 93 % of control

CCCCCCCCCCNCCS
inactive: dose: 4.0 mg/kg/injection, schedule: Q01DX015 (ip), vehicle: carboxymethylcellulose (CMC) 105 % of control | dose: 5.0 mg/kg/injection, schedule: Q01DX001 (ip), vehicle: carboxymethylcellulose (CMC) 109 % of control | dose: 5.0 mg/kg/injection, schedule: Q04DX003 (ip), vehicle: saline sonified 101 % of control | dose: 8.0 mg/kg/injection, schedule: Q01DX015 (ip), vehicle: carboxymethylcellulose (CMC) 103 % of control | dose: 10.0 mg/kg/injection, schedule: Q01DX001 (ip), vehicle: carboxymethylcellulose (CMC) 103 % of control | dose: 10.0 mg/kg/injection, schedule: Q04DX003 (ip), vehicle: saline sonified 101 % of control | dose: 16.0 mg/kg/injection, schedule: Q01DX015 (ip), vehicle: carboxymethylcellulose (CMC) 101 % of control | dose: 20.0 mg/kg/injection, schedule: Q04DX003 (ip), vehicle: saline sonified 101 % of control | dose: 32.0 mg/kg/injection, schedule: Q01DX015 (ip), vehicle: carboxymethylcellulose (CMC) 103 % of control

NC(Cc1ccccc1)C(=O)NCC(=O)NCC(=O)O (stereo not drawn) (H-[ξF]-Gly-Gly-OH)
inactive: dose: 100.0 mg/kg/injection, schedule: Q01DX009 (ip), vehicle: saline with Tween-80 107 % of control | [8] 102 % of control | dose: 200.0 mg/kg/injection, schedule: Q01DX009 (ip), vehicle: saline with Tween-80 91 % of control | [9] 104 % of control | dose: 400.0 mg/kg/injection, schedule: Q01DX009 (ip), vehicle: saline with Tween-80 89 % of control | [10] 98 % of control

CCCC#CCCCN1CCC2(CC1)C(=O)NCN2c1ccccc1
inactive: dose: 20.0 mg/kg/injection, schedule: Q04DX003 (ip), vehicle: Klucel (hydroxypropylcellulose) (HPC) 103 % of control | dose: 40.0 mg/kg/injection, schedule: Q04DX003 (ip), vehicle: Klucel (hydroxypropylcellulose) (HPC) 103 % of control | dose: 80.0 mg/kg/injection, schedule: Q04DX003 (ip), vehicle: Klucel (hydroxypropylcellulose) (HPC) 91 % of control | [2] 93 % of control

C/C=C/C(=O)OC(=O)/C=C/C
inactive: [6] 94 % of control | [7] 98 % of control | [8] 113 % of control | [11] 114 % of control

NC1CCCN(Cc2ccccc2)C1 (centres undefined)
inactive: dose: 75.0 mg/kg/injection, schedule: Q04DX003 (ip), vehicle: saline 104 % of control | dose: 150.0 mg/kg/injection, schedule: Q04DX003 (ip), vehicle: saline 100 % of control

C/C(=N\O)c1ccc[n+](Cc2ccc(C)cc2)c1
inactive: dose: 9.38 mg/kg/injection, schedule: Q01DX001 (ip), vehicle: other 97 % of control | dose: 18.75 mg/kg/injection, schedule: Q01DX001 (ip), vehicle: other 97 % of control

CC1(C)CC(=O)N(c2ccccc2)N1
inactive: [2] 94 % of control | [4] 103 % of control | [5] 107 % of control

CCCCN(CCCC)C(=O)OCC
inactive: dose: 100.0 mg/kg/injection, schedule: Q01DX001 (ip), vehicle: saline 103 % of control | dose: 200.0 mg/kg/injection, schedule: Q01DX001 (ip), vehicle: saline 94 % of control | dose: 400.0 mg/kg/injection, schedule: Q01DX001 (ip), vehicle: saline 101 % of control

Cn1c(=O)c2[nH]c(Br)nc2n(C)c1=O
inactive: [1] 90 % of control | [2] 98 % of control | [3] 93 % of control | [4] 111 % of control | [5] 106 % of control

N#CC(C(=O)c1ccccc1)c1cccc2ccccc12 (centres undefined)
inactive: dose: 50.0 mg/kg/injection, schedule: Q01DX009 (ip), vehicle: Klucel (hydroxypropylcellulose) (HPC) 101 % of control | [1] 95 % of control | [2] 95 % of control | [3] 103 % of control | [4] 91 % of control | [5] 91 % of control

CC(=O)C[P+](c1ccccc1)(c1ccccc1)c1ccccc1
inactive: dose: 12.0 mg/kg/injection, schedule: Q01DX009 (ip), vehicle: saline 96 % of control | dose: 12.0 mg/kg/injection, schedule: Q04DX003 (ip), vehicle: saline 104 % of control | dose: 25.0 mg/kg/injection, schedule: Q01DX009 (ip), vehicle: saline 96 % of control | dose: 25.0 mg/kg/injection, schedule: Q04DX003 (ip), vehicle: saline 94 % of control | [12] 112 % of control | dose: 50.0 mg/kg/injection, schedule: Q04DX003 (ip), vehicle: saline 98 % of control

NC(=O)Cc1cc(=O)[nH]c(=O)[nH]1
inactive: [12] 107 % of control | [7] 96 % of control | dose: 100.0 mg/kg/injection, schedule: Q01DX009 (ip), vehicle: saline 102 % of control | [8] 97 % of control | dose: 200.0 mg/kg/injection, schedule: Q01DX009 (ip), vehicle: saline 100 % of control | [9] 94 % of control | dose: 400.0 mg/kg/injection, schedule: Q01DX009 (ip), vehicle: saline 97 % of control | [10] 91 % of control

CN1CSC(=S)N(Cc2ccccc2)C1
inactive: dose: 100.0 mg/kg/injection, schedule: Q04DX002 (ip), vehicle: saline with Tween-80 94 % of control | dose: 200.0 mg/kg/injection, schedule: Q04DX002 (ip), vehicle: saline with Tween-80 97 % of control | dose: 400.0 mg/kg/injection, schedule: Q04DX002 (ip), vehicle: saline with Tween-80 105 % of control

COC(=O)/C=C\C(=O)O
inactive: [11] 88 % of control | dose: 200.0 mg/kg/injection, schedule: Q04DX003 (ip), vehicle: saline 88 % of control
